Reference: patent US20080009418A1, “Selective Inhibitors” (Alchemia LTD., priority 2004, published 2008)

Columns and labels:
Human κ-Opioid (KOP) = target: T1, Human κ-Opioid (KOP) (Homo sapiens, UniProt P41145); assay: Radioligand binding, human κ-opioid (KOP) membranes, filtration, [3H]-Diprenorphine; conditions: compound at 10 μM, [3H]-Diprenorphine
T1 construct: purchased Perkin Elmer Biosignal
Method in brief: (§1)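 Filtration binding on cloned human receptor membranes (1 Unit/well), [125I]-Substance P for NK1 and [3H]-Diprenorphine for KOP, 1 h at room temperature. Filters PEI-presoaked, washed with cold 50 mM Tris-HCl pH 7.4, counted by scintillation; percent inhibition calculated, reference ligand defining non-specific binding.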

Human Melanocortin (MC3) = target: T2, Human Melanocortin (MC3) (Homo sapiens, UniProt P41968); assay: Radioligand binding, human melanocortin MC3 membranes, FlashPlate, [125I]-NDP-αMSH; conditions: compound at 10 μM, [125I]-NDP-αMSH
T2 construct: purchased Perkin Elmer Biosignal
T2 sequence (P41968 whole entry): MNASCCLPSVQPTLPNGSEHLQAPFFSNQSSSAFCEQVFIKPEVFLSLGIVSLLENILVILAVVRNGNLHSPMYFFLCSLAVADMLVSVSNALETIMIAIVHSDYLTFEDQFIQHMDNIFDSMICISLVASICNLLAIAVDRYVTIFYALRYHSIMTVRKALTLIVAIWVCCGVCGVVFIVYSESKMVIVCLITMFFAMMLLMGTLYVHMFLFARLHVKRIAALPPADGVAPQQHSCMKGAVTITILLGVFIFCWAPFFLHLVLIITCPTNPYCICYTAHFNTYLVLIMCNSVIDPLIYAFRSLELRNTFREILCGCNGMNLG
Method in brief: (§2)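 Cloned human receptor membranes were coated onto FlashPlate wells and incubated with radioligand and compound (added from a 0.5 mM DMSO daughter plate) for 1 hour at room temperature in the dark. Scintillation counting gave percent inhibition, with DMSO defining total and reference ligand defining non-specific binding.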

[1] = target: T3, Human neuropeptide Y (NPY-Y1) (Homo sapiens, UniProt P25929); assay: Radioligand binding, human neuropeptide Y NPY-Y1 membranes, FlashPlate, [125I]-PYY; conditions: compound at 10 μM, [125I]-PYY
T3 construct: purchased Perkin Elmer Biosignal
T3 sequence (P25929 1-384): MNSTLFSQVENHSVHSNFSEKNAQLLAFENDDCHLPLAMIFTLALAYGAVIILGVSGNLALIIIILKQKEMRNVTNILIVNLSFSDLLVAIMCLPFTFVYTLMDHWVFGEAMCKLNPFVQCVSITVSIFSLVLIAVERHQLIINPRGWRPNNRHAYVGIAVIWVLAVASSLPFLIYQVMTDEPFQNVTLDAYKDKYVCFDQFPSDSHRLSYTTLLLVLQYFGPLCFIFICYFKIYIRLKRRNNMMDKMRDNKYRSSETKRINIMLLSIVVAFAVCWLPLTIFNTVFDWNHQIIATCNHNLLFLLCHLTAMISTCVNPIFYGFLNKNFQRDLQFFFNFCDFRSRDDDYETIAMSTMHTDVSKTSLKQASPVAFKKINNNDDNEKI
Method in brief: as §2

[2] = target: T4, Human melanin-concentrating hormone (MCH1) (Homo sapiens, UniProt Q99705); assay: Radioligand binding, human melanin-concentrating hormone MCH1 membranes, FlashPlate, [125I]-S36057; conditions: compound at 10 μM; for A6: inhibition of radioligand binding, human melanin-concentrating hormone (MCH1): [125I]-S36057
T4 construct: purchased Perkin Elmer Biosignal
T4 sequence (Q99705 whole entry): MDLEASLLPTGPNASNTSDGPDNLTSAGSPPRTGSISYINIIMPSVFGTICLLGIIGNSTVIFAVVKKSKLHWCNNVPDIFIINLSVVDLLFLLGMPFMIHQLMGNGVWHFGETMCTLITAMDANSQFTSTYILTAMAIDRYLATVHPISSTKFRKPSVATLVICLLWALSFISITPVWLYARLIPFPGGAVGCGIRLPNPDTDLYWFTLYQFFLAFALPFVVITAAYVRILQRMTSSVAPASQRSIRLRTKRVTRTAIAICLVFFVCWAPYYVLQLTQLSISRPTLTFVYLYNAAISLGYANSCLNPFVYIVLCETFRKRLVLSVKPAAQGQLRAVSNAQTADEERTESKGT
Method in brief: as §2

Human neurokinin (NK1) = target: T5, Human neurokinin (NK1) (Homo sapiens, UniProt P25103); assay: Radioligand binding, human neurokinin NK1 membranes, filtration, [125I]-Substance P; conditions: compound at 10 μM, [125I]-Substance P
T5 construct: purchased Perkin Elmer Biosignal
T5 sequence (P25103 whole entry): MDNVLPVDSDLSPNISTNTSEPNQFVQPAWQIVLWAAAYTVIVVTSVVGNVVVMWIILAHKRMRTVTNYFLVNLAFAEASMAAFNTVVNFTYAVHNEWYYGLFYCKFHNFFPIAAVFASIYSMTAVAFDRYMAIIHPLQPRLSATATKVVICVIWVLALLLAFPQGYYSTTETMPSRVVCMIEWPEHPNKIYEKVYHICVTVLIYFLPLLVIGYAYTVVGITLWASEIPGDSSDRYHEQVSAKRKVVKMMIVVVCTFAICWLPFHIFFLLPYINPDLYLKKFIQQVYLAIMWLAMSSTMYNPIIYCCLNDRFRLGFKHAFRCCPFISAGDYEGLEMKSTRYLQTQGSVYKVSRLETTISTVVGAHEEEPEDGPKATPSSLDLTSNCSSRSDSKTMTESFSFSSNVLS
Method in brief: as §1

Human melanocortin (MC5) = target: T6, Human melanocortin (MC5) (Homo sapiens, UniProt P33032); assay: Radioligand binding, human melanocortin MC5 membranes, FlashPlate, [125I]-NDP-αMSH; conditions: compound at 10 μM, [125I]-NDP-αMSH
T6 construct: purchased Perkin Elmer Biosignal
T6 sequence (P33032 whole entry): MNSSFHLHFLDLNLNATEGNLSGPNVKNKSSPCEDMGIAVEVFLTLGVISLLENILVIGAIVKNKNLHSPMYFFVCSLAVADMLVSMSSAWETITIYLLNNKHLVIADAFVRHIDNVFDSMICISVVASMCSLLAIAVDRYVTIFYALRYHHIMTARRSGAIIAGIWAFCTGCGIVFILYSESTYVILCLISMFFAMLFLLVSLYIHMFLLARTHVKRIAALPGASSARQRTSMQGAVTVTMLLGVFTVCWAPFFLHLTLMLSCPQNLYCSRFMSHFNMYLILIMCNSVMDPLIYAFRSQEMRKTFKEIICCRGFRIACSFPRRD
Method in brief: as §2

Human μ-opioid (MOP) = target: T7, Human μ-opioid (MOP) (Homo sapiens, UniProt P35372); assay: Radioligand binding, human μ-opioid (MOP) membranes, FlashPlate, [3H]-Naloxone; conditions: compound at 10 μM, [3H]-Naloxone
T7 construct: purchased Perkin Elmer Biosignal
T7 sequence (P35372 whole entry): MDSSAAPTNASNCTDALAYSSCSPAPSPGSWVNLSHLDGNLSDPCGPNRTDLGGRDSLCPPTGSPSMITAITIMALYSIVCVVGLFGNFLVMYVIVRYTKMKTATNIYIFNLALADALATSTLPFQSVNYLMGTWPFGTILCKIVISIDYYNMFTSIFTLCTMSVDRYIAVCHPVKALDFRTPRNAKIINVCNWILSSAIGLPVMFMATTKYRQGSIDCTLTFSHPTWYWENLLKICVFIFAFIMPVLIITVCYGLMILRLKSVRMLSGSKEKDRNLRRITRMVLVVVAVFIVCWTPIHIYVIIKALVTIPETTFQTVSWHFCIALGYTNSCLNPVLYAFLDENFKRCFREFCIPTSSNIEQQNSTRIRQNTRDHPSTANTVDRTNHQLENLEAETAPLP
Method in brief: as §2

Human Melanocortin (MC4) = target: T8, Human Melanocortin (MC4) (Homo sapiens, UniProt P32245); assay: Radioligand binding, human melanocortin MC4 membranes, FlashPlate, [125I]-NDP-αMSH; conditions: compound at 10 μM, [125I]-NDP-αMSH
T8 construct: purchased Perkin Elmer Biosignal
T8 sequence (P32245 whole entry): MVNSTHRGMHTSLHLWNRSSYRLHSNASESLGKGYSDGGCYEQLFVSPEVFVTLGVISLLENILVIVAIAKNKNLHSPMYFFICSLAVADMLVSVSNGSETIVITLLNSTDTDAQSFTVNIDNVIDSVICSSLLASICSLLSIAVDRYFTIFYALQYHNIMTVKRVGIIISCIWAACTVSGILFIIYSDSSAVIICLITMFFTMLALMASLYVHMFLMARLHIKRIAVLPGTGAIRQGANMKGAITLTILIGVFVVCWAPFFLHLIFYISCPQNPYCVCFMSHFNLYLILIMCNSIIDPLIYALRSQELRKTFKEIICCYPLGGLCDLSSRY
Method in brief: as §2

Human opioid (ORL1) = target: T9, Human opioid (ORL1) (Homo sapiens, UniProt P41146); assay: Radioligand binding, human opioid ORL1 membranes, FlashPlate, [125I]-Nociceptin; conditions: compound at 10 μM, [125I]-Nociceptin
T9 construct: purchased Perkin Elmer Biosignal
T9 sequence (P41146 whole entry): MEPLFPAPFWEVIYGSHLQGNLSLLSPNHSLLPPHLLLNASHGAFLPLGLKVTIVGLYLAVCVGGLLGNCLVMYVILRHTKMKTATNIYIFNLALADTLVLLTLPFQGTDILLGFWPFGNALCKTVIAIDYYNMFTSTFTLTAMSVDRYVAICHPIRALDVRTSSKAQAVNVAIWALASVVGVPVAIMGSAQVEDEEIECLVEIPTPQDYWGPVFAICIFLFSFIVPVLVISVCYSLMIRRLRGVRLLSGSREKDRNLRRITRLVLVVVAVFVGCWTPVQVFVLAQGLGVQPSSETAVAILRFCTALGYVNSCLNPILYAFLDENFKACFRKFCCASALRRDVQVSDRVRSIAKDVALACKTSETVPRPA
Method in brief: as §2

Human δ-opioid (DOP) = target: T10, Human δ-opioid (DOP) (Homo sapiens, UniProt P41143); assay: Radioligand binding, human δ-opioid (DOP) membranes, FlashPlate, [3H]-Bremazocine; conditions: compound at 10 μM, [3H]-Bremazocine
T10 construct: purchased Perkin Elmer Biosignal
T10 sequence (P41143 whole entry): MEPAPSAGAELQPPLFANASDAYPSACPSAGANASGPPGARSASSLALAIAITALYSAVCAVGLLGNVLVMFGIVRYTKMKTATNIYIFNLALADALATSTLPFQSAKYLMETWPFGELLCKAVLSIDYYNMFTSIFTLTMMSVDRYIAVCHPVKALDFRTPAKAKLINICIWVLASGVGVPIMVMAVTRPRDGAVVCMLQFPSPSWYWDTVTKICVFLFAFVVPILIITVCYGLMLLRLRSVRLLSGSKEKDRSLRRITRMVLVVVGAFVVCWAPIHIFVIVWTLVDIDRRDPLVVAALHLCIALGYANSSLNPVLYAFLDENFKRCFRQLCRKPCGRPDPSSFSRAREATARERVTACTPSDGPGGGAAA
Method in brief: as §2

Mouse urotensin (mUR2) = target: T11, Mouse urotensin (mUR2) (Mus musculus, UniProt Q8VIH9); assay: Radioligand binding, mouse urotensin mUR2 membranes, FlashPlate, [125I]-Urotensin II; conditions: compound at 10 μM, [125I]-Urotensin II
T11 construct: purchased Perkin Elmer Biosignal
T11 sequence (Q8VIH9 1-385): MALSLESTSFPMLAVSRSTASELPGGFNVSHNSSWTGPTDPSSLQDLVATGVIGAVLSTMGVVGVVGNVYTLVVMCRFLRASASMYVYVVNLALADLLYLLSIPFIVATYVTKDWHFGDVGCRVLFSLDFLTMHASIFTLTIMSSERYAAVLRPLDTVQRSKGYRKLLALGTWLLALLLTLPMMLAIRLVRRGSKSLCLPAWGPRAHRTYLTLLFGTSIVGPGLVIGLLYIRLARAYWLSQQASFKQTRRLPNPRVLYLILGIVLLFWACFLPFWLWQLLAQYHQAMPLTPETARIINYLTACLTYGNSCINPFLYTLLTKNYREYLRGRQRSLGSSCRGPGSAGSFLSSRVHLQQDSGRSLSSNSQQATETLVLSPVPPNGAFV
Method in brief: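 Cloned mouse urotensin (mUR2) receptor membranes from Perkin Elmer Biosignal were immobilized in FlashPlate microplates using a proprietary coating. Each well got 19.5 μl buffer, then 0.5 μl of DMSO, reference ligand, or compound. Adding 5 μl of [125I]-Urotensin II, diluted to 5× final concentration in binding buffer, started binding. Plates were sealed with TopSeal-A and incubated 1 hour at room temperature in the dark. Wells were counted for 30 seconds each on a TopCount after a 60-second delay, and percentage inhibition was calculated.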

T1 sequence (P41145 whole entry): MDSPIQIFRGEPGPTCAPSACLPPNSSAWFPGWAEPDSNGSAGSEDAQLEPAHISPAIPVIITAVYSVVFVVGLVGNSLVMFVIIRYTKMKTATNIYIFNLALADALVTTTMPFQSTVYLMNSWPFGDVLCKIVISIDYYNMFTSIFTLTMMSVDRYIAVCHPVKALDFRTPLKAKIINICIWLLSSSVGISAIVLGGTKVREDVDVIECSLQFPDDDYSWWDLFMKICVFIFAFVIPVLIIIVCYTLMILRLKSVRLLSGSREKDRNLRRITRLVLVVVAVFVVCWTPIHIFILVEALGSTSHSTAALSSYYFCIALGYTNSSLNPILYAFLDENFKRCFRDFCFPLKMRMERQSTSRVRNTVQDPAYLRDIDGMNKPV

Compound	A2: inhibition of radioligand binding, human κ-opioid (KOP) (Human κ-Opioid (KOP))	A3: inhibition of radioligand binding, human melanocortin (MC3) (Human Melanocortin (MC3))	A9: inhibition of radioligand binding, human neuropeptide Y (NPY-Y1) [1]	A6: inhibition of radioligand binding, human melanin-concentrating hormone (MCH1) [2]	A8: inhibition of radioligand binding, human neurokinin (NK1) (Human neurokinin (NK1))	A5: inhibition of radioligand binding, human melanocortin (MC5) (Human melanocortin (MC5))	A7: inhibition of radioligand binding, human μ-opioid (MOP) (Human μ-opioid (MOP))	A4: inhibition of radioligand binding, human melanocortin (MC4) (Human Melanocortin (MC4))	A10: inhibition of radioligand binding, human opioid (ORL1) (Human opioid (ORL1))	A1: inhibition of radioligand binding, human δ-opioid (DOP) (Human δ-opioid (DOP))	A11: inhibition of radioligand binding, mouse urotensin (mUR2) (Mouse urotensin (mUR2))	further results
CSC1OC(COCc2ccccc2)C(O)C(OCc2cccc(N)c2)C1NC(=O)C=Cc1ccccc1 (stereo not shown) [compound 324]	− (“−” indicates less than 50% inhibition at 10 μM)	− (“−” indicates less than 50% inhibition at 10 μM)	− (“−” indicates less than 50% inhibition at 10 μM)	− (“−” indicates less than 50% inhibition at 10 μM)	+ (“+” indicates greater than 50% inhibition at 10 μM)	− (“−” indicates less than 50% inhibition at 10 μM)	− (“−” indicates less than 50% inhibition at 10 μM)	− (“−” indicates less than 50% inhibition at 10 μM)	− (“−” indicates less than 50% inhibition at 10 μM)	− (“−” indicates less than 50% inhibition at 10 μM)	− (“−” indicates less than 50% inhibition at 10 μM)	–
N=C(N)NCCC(=O)N[C@H]1C(OCc2ccc(Cl)cc2)O[C@H](COCc2ccccc2)[C@@H](O)[C@@H]1OCc1ccc(-c2ccccc2)cc1 (stereo partly shown) [compound 536]	+ (“+” indicates greater than 50% inhibition at 10 μM)	+ (“+” indicates greater than 50% inhibition at 10 μM)	− (“−” indicates less than 50% inhibition at 10 μM)	+ (“+” indicates greater than 50% inhibition at 10 μM)	+ (“+” indicates greater than 50% inhibition at 10 μM)	+ (“+” indicates greater than 50% inhibition at 10 μM)	–	+ (“+” indicates greater than 50% inhibition at 10 μM)	− (“−” indicates less than 50% inhibition at 10 μM)	–	− (“−” indicates less than 50% inhibition at 10 μM)	A7: inhibition of radioligand binding, human μ-opioid (MOP) (Human μ-opioid (MOP); 10 µM): − (“−” indicates less than 50% inhibition at 10 μM); A1: inhibition of radioligand binding, human δ-opioid (DOP) (Human δ-opioid (DOP); 10 µM): − (“−” indicates less than 50% inhibition at 10 μM)
CSC1O[C@H](COCc2ccc3ccccc3c2)[C@@H](O)[C@@H](OCc2ccc(-c3ccccc3)cc2)[C@H]1NC(=O)CN (stereo partly shown) [compound 295]	− (“−” indicates less than 50% inhibition at 10 μM)	− (“−” indicates less than 50% inhibition at 10 μM)	− (“−” indicates less than 50% inhibition at 10 μM)	− (“−” indicates less than 50% inhibition at 10 μM)	+ (“+” indicates greater than 50% inhibition at 10 μM)	− (“−” indicates less than 50% inhibition at 10 μM)	− (“−” indicates less than 50% inhibition at 10 μM)	− (“−” indicates less than 50% inhibition at 10 μM)	− (“−” indicates less than 50% inhibition at 10 μM)	− (“−” indicates less than 50% inhibition at 10 μM)	− (“−” indicates less than 50% inhibition at 10 μM)	–
NCCCC(=O)NC1C(OCc2ccccc2)OC(COCc2ccccc2)C(O)C1OCc1ccccc1 (stereo not shown) [compound 379]	− (“−” indicates less than 50% inhibition at 10 μM)	− (“−” indicates less than 50% inhibition at 10 μM)	− (“−” indicates less than 50% inhibition at 10 μM)	− (“−” indicates less than 50% inhibition at 10 μM)	+ (“+” indicates greater than 50% inhibition at 10 μM)	+ (“+” indicates greater than 50% inhibition at 10 μM)	− (“−” indicates less than 50% inhibition at 10 μM)	− (“−” indicates less than 50% inhibition at 10 μM)	− (“−” indicates less than 50% inhibition at 10 μM)	− (“−” indicates less than 50% inhibition at 10 μM)	− (“−” indicates less than 50% inhibition at 10 μM)	–
N=C(N)NCC(=O)NC1C(OCc2ccc(Cl)cc2)OC(COCc2ccc(Cl)cc2)C(O)C1OCc1ccc2ccccc2c1 (stereo not shown) [compound 422]	–	–	–	–	–	–	–	–	–	–	–	A2: inhibition of radioligand binding (Human κ-Opioid (KOP); human KOP membranes): − (“−” indicates less than 50% inhibition at 10 μM); A3: inhibition of radioligand binding (Human Melanocortin (MC3); human MC3 membranes): + (“+” indicates greater than 50% inhibition at 10 μM); A9: inhibition of radioligand binding ([1]; human NPY-Y1 membranes): − (“−” indicates less than 50% inhibition at 10 μM); A6: inhibition of radioligand binding ([2]; [125I]-S36057, human MCH1 membranes): + (“+” indicates greater than 50% inhibition at 10 μM); A8: inhibition of radioligand binding (Human neurokinin (NK1); human NK1 membranes): + (“+” indicates greater than 50% inhibition at 10 μM); A5: inhibition of radioligand binding (Human melanocortin (MC5); human MC5 membranes): + (“+” indicates greater than 50% inhibition at 10 μM); A7: inhibition of radioligand binding (Human μ-opioid (MOP); human MOP membranes): − (“−” indicates less than 50% inhibition at 10 μM); A4: inhibition of radioligand binding (Human Melanocortin (MC4); human MC4 membranes): + (“+” indicates greater than 50% inhibition at 10 μM); A10: inhibition of radioligand binding (Human opioid (ORL1); human ORL1 membranes): + (“+” indicates greater than 50% inhibition at 10 μM); A1: inhibition of radioligand binding (Human δ-opioid (DOP); human DOP membranes): − (“−” indicates less than 50% inhibition at 10 μM); A11: inhibition of radioligand binding (Mouse urotensin (mUR2); mouse mUR2 membranes): − (“−” indicates less than 50% inhibition at 10 μM)
